Tests used:
adenosine kinase = adenosine kinase (AK) inhibition; assay type: biochemical, pig heart or recombinant human; conditions: 0.5 μM [U-14C] adenosine, pH 7.0, 20 minutes
Procedure: Adenosine kinase activity was measured essentially as described by Yamada et al. (Yamada, Y., Goto, H., Ogasawara, N. (1988) Biochim. Biophys. Acta 660, 36-43.) with a few minor modifications. […] Natl. Acad. Sci. […] The reactions were incubated for 20 minutes at […] The assay was quenched upon spotting 30 μL aliquots onto 2 cm^2 pieces of Whatman DE81 anion exchange paper. The papersquares were washed for 3 minutes in 6 L distilled/deionized water to remove the unreacted adenosine. The washed squares were rinsed in 95% ethanol and dried in an oven at 100° C. for 10 minutes. The amount of ^14 C-AMP was quantified by scintillation counting.

male Lewis rats = assay: adjuvant arthritis; assay type: in vivo, rat
Procedure: Heat-killed Mycobacterium butyricum was ground to a find powder and suspended in heavy mineral oil at 10 mg/ml. The suspension was injected subcutaneously into the base of the tail of male Lewis rats at 0.1 ml per rat. This immunization procedure induces an agressive arthritis that is apparent at day 10-12 and rapidly worsens. The volumes of the hind paws were measured before immunization and on days 12, 15 and 20 after immunization. The baseline paw volume was subtracted from the arthritic volumes to yield paw swelling. AK inhibitors were given by daily oral gavage beginning on day 4 after immunization, using polyethylene glycol-400 as the vehicle. Control rats received vehicle only. Percent inhibition was calculated based on paw swelling in AK inhibitor treated group compared to vehicle treated group, and is reported in Table 11.

[1] = 10 mg/kg daily oral gavage from day 4
[2] = 20 mg/kg daily oral gavage from day 4

- IC50 (adenosine kinase): 28 nM
Compound: O[C@@H]1[C@H](O)CO[C@H]1n1cc(-c2ccccc2)c2c(Nc3ccc(F)cc3)ncnc21 [compound 28]
- % inh at day 12 (paw swelling) (male Lewis rats; [1]): 29 ± 7%
- % inh at day 15 (paw swelling) (male Lewis rats; [1]): 22 ± 4%
- % inh at day 12 (paw swelling) (male Lewis rats; [2]): 52 ± 23%
- % inh at day 15 (paw swelling) (male Lewis rats; [2]): 52 ± 22%
- % inh at day 20 (paw swelling) (male Lewis rats; [2]): 40 ± 8%

Source: patent US5763596A, “C-4' modified adenosine kinase inhibitors” (Metabasis Therapeutics, Inc., priority 1996, dated 1998)
